Experimental data published in US20210290648A1, “Potentiation of B-Lactam Antibiotics and B-Lactam/B-Lactamase Inhibitor Combinations Against Multidrug and Extensively Drug-Resistant Pseudomonas Aeruginosa Using Non-Ribosomal Tobramycin-Cyclam Conjugates” (University of Manitoba, priority 2018, published 2021).
Read-outs that look alike come from different tables or passages of the source.

Tests used:
PA 100036 = assay: Checkerboard combination study / MIC; assay type: cell-based, Pseudomonas aeruginosa; settings: for MICCombination (antibiotic): MIC of antibiotic combined with compound 2; for FICI: antibiotic + compound 2; for MICAntibiotic: antibiotic alone; for FICAntibiotic: with compound 2
MDR PA101885 = assay: Time-kill assay; assay type: cell-based, Pseudomonas aeruginosa; settings: for interaction with compound 2 in time-kill: 24 h; for time-kill effect, antibiotic + compound 2: CLSI breakpoint concentration + 4.4 μM or 8.7 μM compound 2, after about 6 h; for time-kill effect, antibiotic alone: at CLSI breakpoint concentration (aztreonam 8 μg/mL, meropenem 2 μg/mL)
Description: (§1) Time-kill curves typically reveal the kinetics of bacterial growth and death, with respect to time, at different antimicrobial concentrations. An antibiotic could either be bactericidal or bacteriostatic under specific growth conditions. Bactericidal activity is defined as a ≥3-log reduction in the total CFU/mL from the original inoculum over 24 hours while bacteriostatic activity is defined as maintenance of <3-log reduction in the total CFU/mL from the original inoculum (44). […] Growth curves were initially performed to ensure that strains will reach a stable early- to mid-log phase after 4 h of pre-incubation in antimicrobial-free LB medium.
(§2) Time-kill assay. Time-kill curve analyses were performed by culturing P. aeruginosa in LB medium, in the presence of antibiotics alone and in combination with test adjuvants. MICs of antibiotics and adjuvants were determined before the experiment following CLSI microbroth dilution guidelines. Growth curves were initially performed to confirm that all strains will reach a stable early- to mid-log phase after 4 h of pre-incubation in antimicrobial-free LB medium. A 0.5 McFarland inoculum of each strain was prepared in sterile 0.85% saline solution from an overnight grown culture. For each strain, 30 μl of the prepared inoculum was diluted to 3 ml of LB broth (containing different combinations of antimicrobial agents and adjuvants) and incubated at 37° C. shaking at 250 rpm. At specific time intervals (0, 1, 3, 6, 9, and 24 h), 100 μl was taken from each sample, serially diluted in sterile PBS, plated on LB agar plates, and incubated at 37° C. in a humid 5% CO2-enriched atmosphere. Bacteria colonies were counted after 20 h of incubation.

[1] = test system: wild type P. aeruginosa PAO1; assay: Time-kill assay; assay type: cell-based, Pseudomonas aeruginosa; settings: WT PAO1; for interaction with compound 2 in time-kill: 24 h; for time-kill effect, antibiotic alone: at MIC (aztreonam 4 μg/mL, meropenem 1 μg/mL)
Description: as §1, §2

PA 264 = assay: Checkerboard combination study / MIC; assay type: cell-based, Pseudomonas aeruginosa; settings: for MICCombination (antibiotic): MIC of antibiotic combined with compound 2; for FICI: antibiotic + compound 2; for MICAntibiotic: antibiotic alone; for FICAntibiotic: with compound 2
PA 91433 = assay: Checkerboard combination study / MIC; assay type: cell-based, Pseudomonas aeruginosa; settings: PA 91433; for MICCombination (antibiotic): MIC of antibiotic combined with compound 2; for FICI: antibiotic + compound 2; for MICAntibiotic: antibiotic alone; for FICAntibiotic: with compound 2
WT P. aeruginosa PAO1 = assay: Checkerboard combination study / MIC; assay type: cell-based, Pseudomonas aeruginosa; settings: for MIC: Pseudomonas aeruginosa; for FICI in the presence of ≤10 μM of 1: antibiotic + compound 1; for FICI in the presence of ≤10 μM of 1 / MIC of Antibiotics in the presence of ≤10 μM of 1 / FICI in the presence of ≤10 μM of 2 / MIC of Antibiotics in the presence of ≤10 μM of 2 / FICI in the presence of ≤10 μM of 3 / MIC of Antibiotics in the presence of ≤10 μM of 3: WT PAO1; for MIC of Antibiotics in the presence of ≤10 μM of 1: antibiotic + compound 1 ≤10 μM; for FICI in the presence of ≤10 μM of 2: antibiotic + compound 2; for MIC of Antibiotics in the presence of ≤10 μM of 2: antibiotic + compound 2 ≤10 μM; for FICI in the presence of ≤10 μM of 3: antibiotic + compound 3; for MIC of Antibiotics in the presence of ≤10 μM of 3: antibiotic + compound 3 ≤10 μM; for MIC of antibiotic alone in PAO1: PAO1 wild-type (Table 4)
[2] = test system: MDR PA101885-challenged larvae; assay: Galleria mellonella infection model, efficacy; assay type: in vivo; settings: after 24 h
Description: In vivo synergistic effects were determined using Galleria mellonella infection model, as previously described (20). Briefly, worms were purchased from The Worm Lady® Live Feeder (ON, Canada), stored in their natural habitat at 16° C., and used within 10 days of delivery. The worms (average weight of 250 mg) were used for tolerability and efficacy studies. Tolerability study was performed by injecting 10 μL of antimicrobial agents only at concentrations equivalent to 100 mg/kg or 200 mg/kg. The worms (ten in each group) were incubated at 37° C. and monitored for 96 h. For efficacy studies, the virulence and bacterial load required to kill 100% of the worms within 12-18 h (with no treatment) was first determined, which is approximately 5 CFU. Overnight grown culture of respective MDR P. aeruginosa isolate was standardized to 0.5 McFarland standard and diluted in PBS to a final concentration of 5×10^2CFU/mL. 10 μL of this solution (5 CFU) was injected into each worm and incubated for 3 h at 37° C. […] Worms treated with 10 μL PBS or high concentrations of test antibiotics served as negative and positive control, respectively. The worms were incubated at 37° C. in Petri dishes lined with filter paper and scored for survivability every 6 h for up to 48 h. This experiment was repeated to give a total of thirty worms (n=30) in each case. Survival data curves were plotted using Kaplan-Meier survival analysis.

MDR PA108590 = assay: Time-kill assay, triple combination; assay type: cell-based, Pseudomonas aeruginosa; settings: 16 μg/mL, i.e. half MIC; MDR PA108590
[3] = test system: MDR PA108590-challenged larvae; assay: Galleria mellonella infection model, efficacy; assay type: in vivo; settings: ceftazidime 1.56 mg/kg single dose
Excerpt: In vivo larvae-infection model.

PA108590 = assay: MIC / triple combination susceptibility; assay type: cell-based, Pseudomonas aeruginosa; settings: Pseudomonas aeruginosa; P. aeruginosa 108590; FIG. 8 legend
Excerpt: The diazabicyclooctane β-lactamase inhibitor, avibactam, is able to inhibit a wide range of serine β-lactamases (class A, C, and D) but not metallo-β-lactamases (class B) (50, 51).^50,51 However, the high concentration of avibactam required to neutralize the effects of β-lactamase enzymes in these phenotypes is indicative of concomitant permeability barriers in the isolates, such as reduced porin uptake. […] The results of this study are shown in (FIG. 6). All isolates were resistant to all three β-lactam antibiotics used for the study. […] As expected, the study with meropenem was slightly different from others.
Antimicrobial Susceptibility Assay. The in vitro antimicrobial activity of all compounds/antibiotics against a panel of bacteria was evaluated by microbroth dilution method in accordance with the Clinical and Laboratory Standards Institute (CLSI) guidelines. […]
Checkerboard Assay. […] After incubation, the plates were read on EMax® Plus microplate reader (Molecular Devices, Sunnyvale, Calif., USA) at 590 nm. MIC was recorded as wells with the lowest concentration of drugs with no bacterial growth. The fractional inhibitory concentration (FIC) for each antibiotic was calculated by dividing the MIC of the antibiotic in the presence of adjuvant by the MIC of the antibiotic alone. […]

[4] = PAO1, 18 h, antibiotic alone, WT PAO1 (Table 2), read-out: MIC alone
[5] = PAO1, time-kill study text and FIG. 7 legend, read-out: MIC against WT PAO1

| Compound | MICCombination (antibiotic) (PA 100036) [µg/mL] | FICI (PA 100036) | MICAntibiotic (PA 100036) [µg/mL] | interaction with compound 2 in time-kill (MDR PA101885) | MICCombination (antibiotic) (PA 264) [µg/mL] | FICI (PA 264) | MICAntibiotic (PA 264) [µg/mL] | FICAntibiotic (PA 264) | MICCombination (antibiotic) (PA 91433) [µg/mL] | FICI (PA 91433) | MICAntibiotic (PA 91433) [µg/mL] | FICAntibiotic (PA 91433) | MIC of antibiotic + Compound 2 in PAO1 (WT P. aeruginosa PAO1; + compound 2 ≤8.7 μM, PAO1) [µg/mL] | FICI in the presence of ≤10 μM of 1 (WT P. aeruginosa PAO1) | MIC of Antibiotics in the presence of ≤10 μM of 1 (WT P. aeruginosa PAO1) | FICI in the presence of ≤10 μM of 2 (WT P. aeruginosa PAO1) | MIC of Antibiotics in the presence of ≤10 μM of 2 (WT P. aeruginosa PAO1) [µg/mL] | FICI in the presence of ≤10 μM of 3 (WT P. aeruginosa PAO1) | MIC of Antibiotics in the presence of ≤10 μM of 3 (WT P. aeruginosa PAO1) [µg/mL] | MIC of antibiotic alone in PAO1 (WT P. aeruginosa PAO1; antibiotic alone) [µg/mL] | other results |
| --- | --- | --- | --- | --- | --- | --- | --- | --- | --- | --- | --- | --- | --- | --- | --- | --- | --- | --- | --- | --- | --- |
| C[C@H]1[C@H](NC(=O)/C(=N\OC(C)(C)C(=O)O)c2csc(N)n2)C(=O)N1S(=O)(=O)O [Aztreonam] | 2 | <0.16 | 16 | synergistic | 16 | <0.28 | 64 | 0.250 | 512 | <1.06 | 512 | 1.000 | 0.25 | 0.13 | 0.5 µg/mL | 0.07 | 0.25 | 0.14 | 0.5 | 4 | time-kill effect, antibiotic + compound 2 (MDR PA101885): strongly bactericidal; time-kill effect, antibiotic alone (MDR PA101885): bacteriostatic effect; interaction with compound 2 in time-kill [1]: synergistic; time-kill effect, antibiotic alone [1]: time-dependent bactericidal effect; MIC (WT P. aeruginosa PAO1; [4]): 4 µg/mL; MIC (WT P. aeruginosa PAO1; PAO1, FIG. 7 legend, read-out: MIC against WT PAO1): 0.004 µg/mL; MIC (WT P. aeruginosa PAO1; [5]): 4 µg/mL; survival of larvae ([2]; aztreonam 25 mg/kg single dose): 50% |
| CC(C)(O/N=C(\C(=O)N[C@@H]1C(=O)N2C(C(=O)[O-])=C(C[n+]3ccccc3)CS[C@H]12)c1csc(N)n1)C(=O)O [Ceftazidime] | 2 | <0.28 | 8 |  | 32 | <0.28 | 128 | 0.250 | 512 | <0.50 | 1024 | 0.500 | 0.5 | 0.25 | 0.5 µg/mL | 0.13 | 0.25 | 0.25 | 0.5 | 4 | FICAntibiotic (PA 100036): 0.250; time-kill effect, alone (MDR PA108590): bactericidal effects after 3 h; MIC (WT P. aeruginosa PAO1; PAO1, antibiotic alone, WT PAO1 (Table 2), read-out: MIC alone): 2 µg/mL; survival of larvae ([3]; after 24 h): 50%; survival of larvae ([3]; after 36 h): 10%; MIC (PA108590): 0.032 µg/mL |
| C[C@@H](O)[C@H]1C(=O)N2C(C(=O)O)=C(S[C@@H]3CN[C@H](C(=O)N(C)C)C3)[C@H](C)[C@H]12 [Meropenem] | 2 | <0.51 | 4 | synergistic | 2 | <0.05 | 64 | 0.0313 | 0.25 | <0.03 | 16 | 0.016 | 0.25 | 0.25 (0.25) | 0.25 (0.25) μg/ml | 0.26 | 0.25 | 0.50 | 0.5 | 1 | FICAntibiotic (PA 100036): 0.500; time-kill effect, antibiotic + compound 2 (MDR PA101885): strongly bactericidal; time-kill effect, antibiotic alone (MDR PA101885): bacteriostatic effect; interaction with compound 2 in time-kill [1]: indifferent; time-kill effect, antibiotic alone [1]: time-dependent bactericidal effect; fold change of MIC + Compound 2 in PAO1 (WT P. aeruginosa PAO1; + compound 2 ≤8.7 μM, PAO1): 4; MIC (WT P. aeruginosa PAO1; [4]): 1 µg/mL; MIC (WT P. aeruginosa PAO1; [5]): 1 µg/mL; mortality of larvae, monotherapy ([2]; aztreonam […], meropenem 37.5 mg/kg, compound 2 100 mg/kg): 100%; survival of larvae ([2]; meropenem 37.5 mg/kg single dose): 0%; survival of larvae ([2]; meropenem 50 mg/kg single dose): 80% |
